The values that follow come from patent US20230023559A1, “ARYLMETHYLENE HETEROCYCLIC COMPOUNDS AS KV1.3 POTASSIUM SHAKER CHANNEL BLOCKERS” (D. E. Shaw Research, LLC, priority 2019, published 2023).

The target in assay [1] is T1, Kv1.3 potassium channel (Homo sapiens, UniProt P22001).
T1 construct: expressed in transfected cells
The assay can be described thus: Kv1.3 potassium channel blocker activity, automated whole-cell patch clamp (Patchliner). Particulars: CHO-K1 cells stably expressing Kv1.3; whole cell current inhibition; read-out: Kv1.3_IC50. In kind it is cell-based. The method, boiled down: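 Peak-current block was recorded on stable Kv1.3 CHO-K1 cells by automated patch clamp, stepping from a −90 mV holding potential to +40 mV for 100 ms at 0.1 Hz with 10 s breaks between trains. Online P/4 leak subtraction, 10 kHz sampling; compound exposure under 10 s per train.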
In general terms: In patch-clamp work, channel activity is measured electrically.

The target of assay [2] is hERG channel (Homo sapiens, UniProt Q12809). The assay is described as follows: hERG electrophysiology, automated whole-cell patch clamp (Patchliner). Background: Block of hERG is tested as a sign of cardiac risk.
hERG channel, sequence (Q12809 whole entry): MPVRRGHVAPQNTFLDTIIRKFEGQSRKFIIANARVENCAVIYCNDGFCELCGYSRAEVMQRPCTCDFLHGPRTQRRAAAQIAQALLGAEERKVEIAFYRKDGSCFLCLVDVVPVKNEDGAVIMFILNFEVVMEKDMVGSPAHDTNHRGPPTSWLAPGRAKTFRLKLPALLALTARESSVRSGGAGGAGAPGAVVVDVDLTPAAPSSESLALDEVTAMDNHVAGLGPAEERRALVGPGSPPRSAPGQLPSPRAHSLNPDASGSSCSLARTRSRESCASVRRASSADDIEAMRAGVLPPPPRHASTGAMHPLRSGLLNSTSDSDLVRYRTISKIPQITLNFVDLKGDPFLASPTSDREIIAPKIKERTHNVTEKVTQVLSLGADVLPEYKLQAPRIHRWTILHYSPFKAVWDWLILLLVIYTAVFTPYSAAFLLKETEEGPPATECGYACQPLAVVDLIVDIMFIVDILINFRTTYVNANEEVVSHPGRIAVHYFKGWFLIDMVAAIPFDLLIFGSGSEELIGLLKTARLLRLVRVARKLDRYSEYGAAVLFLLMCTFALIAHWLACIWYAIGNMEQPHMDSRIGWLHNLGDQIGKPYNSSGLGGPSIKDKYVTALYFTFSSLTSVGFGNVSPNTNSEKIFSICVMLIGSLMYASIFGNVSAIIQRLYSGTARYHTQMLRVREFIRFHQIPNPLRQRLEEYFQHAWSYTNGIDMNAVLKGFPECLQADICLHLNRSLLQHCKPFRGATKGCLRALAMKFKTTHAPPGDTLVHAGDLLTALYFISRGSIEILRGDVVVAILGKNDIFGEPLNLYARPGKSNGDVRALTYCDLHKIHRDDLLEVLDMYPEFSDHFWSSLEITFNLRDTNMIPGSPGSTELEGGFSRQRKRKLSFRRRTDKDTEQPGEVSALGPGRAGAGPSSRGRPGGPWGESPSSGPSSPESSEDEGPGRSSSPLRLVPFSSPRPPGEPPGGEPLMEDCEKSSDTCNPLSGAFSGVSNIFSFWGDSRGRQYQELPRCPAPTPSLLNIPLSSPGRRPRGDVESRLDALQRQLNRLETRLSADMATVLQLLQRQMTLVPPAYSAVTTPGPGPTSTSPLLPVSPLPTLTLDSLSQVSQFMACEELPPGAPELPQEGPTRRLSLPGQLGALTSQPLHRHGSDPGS

For orientation: IC50 means the concentration that inhibits the measured activity by half.

Where only a bound is given, the exact number is not on record here.

T1 sequence (P22001 whole entry): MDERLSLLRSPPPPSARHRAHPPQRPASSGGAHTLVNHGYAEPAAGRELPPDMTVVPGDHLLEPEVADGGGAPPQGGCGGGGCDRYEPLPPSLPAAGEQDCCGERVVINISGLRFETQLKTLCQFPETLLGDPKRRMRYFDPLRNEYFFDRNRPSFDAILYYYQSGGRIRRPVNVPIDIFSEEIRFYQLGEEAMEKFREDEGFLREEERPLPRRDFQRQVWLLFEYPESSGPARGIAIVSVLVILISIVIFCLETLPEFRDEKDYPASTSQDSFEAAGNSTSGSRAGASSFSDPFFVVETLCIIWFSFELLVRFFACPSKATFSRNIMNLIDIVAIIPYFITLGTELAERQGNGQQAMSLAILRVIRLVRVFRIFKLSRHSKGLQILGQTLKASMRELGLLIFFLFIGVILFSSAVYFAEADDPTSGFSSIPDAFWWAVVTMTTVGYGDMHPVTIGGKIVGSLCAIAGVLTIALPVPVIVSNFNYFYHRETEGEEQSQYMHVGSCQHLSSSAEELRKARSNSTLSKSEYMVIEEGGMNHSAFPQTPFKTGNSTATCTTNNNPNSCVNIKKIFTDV

Take `N[C@@H](c1cc(Cl)c(Cl)cc1O)[C@H]1CCNC1` (single isomer, unassigned; diastereoisomer 1) [Compound 32, 2-(amino(pyrrolidin-3-yl)methyl)-4,5-dichlorophenol Trifluoroacetic Acid Diastereoisomer 1]: the IC50 was less than 10 µM in assay [1] and more than 30 µM in assay [2].

With `CC(C)C(N)C(=O)N1CCC([C@@H](N)c2cc(Cl)c(Cl)cc2O)CC1` (stereo partly drawn) [Compound 156, 2-amino-1-[4-[(R)-amino(4,5-dichloro-2-hydroxyphenyl)methyl]piperidin-1-yl]-3-methylbutan-1-one trifluoroacetic acid], the IC50 in assay [1] is less than 10 µM; in assay [2], more than 30 µM.

`CN1CC[C@H](C(=O)N2CCC([C@@H](N)c3cc(Cl)c(Cl)cc3O)CC2)C1` [Compound 106, (4-((R)-amino(4,5-dichloro-2-hydroxyphenyl)methyl)piperidin-1-yl)((S)-1-methylpyrrolidin-3-yl)methanone]: the half-maximal inhibitory concentration (IC50) was less than 0.5 µM in assay [1] and more than 30 µM in assay [2].

Turning to `NC(c1cc(Cl)c(Cl)cc1O)C1CCN(C(=O)[C@H]2CCNC2)CC1` (stereo partly drawn) [Compound 63, (4-(amino(4,5-dichloro-2-hydroxyphenyl)methyl)piperidin-1-yl)((S)-pyrrolidin-3-yl)methanone Trifluoroacetic Acid], the IC50 in assay [1] is less than 0.5 µM; in assay [2], more than 30 µM.

Consider `CC(C)(CO)C(=O)N1CCC([C@@H](N)c2cc(Cl)c(Cl)cc2O)CC1` [Compound 142, 1-[4-[(R)-amino(4,5-dichloro-2-hydroxyphenyl)methyl]piperidin-1-yl]-3-hydroxy-2,2-dimethylpropan-1-one trifluoroacetic acid], for which the IC50 was less than 10 µM in assay [1] and less than 30 µM in assay [2].

`O=C([C@@H]1CCNC1)N1CCC(C(O)c2cc(Cl)c(Cl)cc2O)CC1` (stereo partly drawn) [Compound 101, 4,5-dichloro-2-[hydroxy([1-[(3R)-pyrrolidine-3-carbonyl]piperidin-4-yl])methyl]phenol]: the IC50 is less than 0.5 µM in assay [1] and more than 30 µM in assay [2].

For the molecule `C[C@H](O)[C@H](N)C(=O)N1CCC([C@@H](N)c2cc(Cl)c(Cl)cc2O)CC1` [Compound 175, (2S,3S)-2-amino-1-[4-[(R)-amino(4,5-dichloro-2-hydroxyphenyl)methyl]piperidin-1-yl]-3-hydroxybutan-1-one bis trifluoroacetic acid], the IC50 in assay [1] was less than 0.5 µM; in assay [2] it was more than 30 µM.

For `O=C([C@@H]1CCNC1)N1CCC([C@@H](O)c2cc(Cl)c(Cl)cc2O)CC1` (single isomer, unassigned) [Compound 116], the IC50 in assay [1] is less than 0.5 µM; in assay [2], more than 30 µM.

For the molecule `COC[C@@H](O)C(=O)N1CCC([C@@H](N)c2cc(Cl)c(Cl)cc2O)CC1` [Compound 197, (2R)-1-[4-[(R)-amino(4,5-dichloro-2-hydroxyphenyl)methyl]piperidin-1-yl]-2-hydroxy-3-methoxypropan-1-one trifluoroacetic acid], the half-maximal inhibitory concentration (IC50) in assay [1] is less than 10 µM; in assay [2] it was more than 30 µM.
